Laboratory results from US20220324835A1 (Nurix Therapeutics, Inc., priority 2018, published 2022).

Experiments:
Format in all cases: cell-based
[1] = tested on: primary human total T-cells; assay: T-cell activation assessed by cell proliferation (Cell Trace Violet)
Outline: (§1)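 Readouts are fold change versus compound-free cells under the same stimulation: plate-bound anti-CD3 (OKT3, 10 μg/mL coating) alone or with soluble anti-CD28 at 5 μg/mL, for 48 h. Isolated human total T cells (1×10^5/well) got inhibitor 1 h beforehand at concentrations such as 10, 1.11 or 0.123 μM. Measured: GM-CSF/IFNγ/TNFα secretion, surface CD69, proliferation by dye dilution.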

[2] = tested on: primary human total T-cells; assay: T-cell activation assessed by cytokine secretion (GM-CSF, IFNγ, TNFα)
Outline: as §1

[3] = tested on: primary human total T-cells; assay: T-cell activation assessed by CD69 expression
Outline: as §1

[4] = CD3/CD28 stimulation, CD4 T-cells, read-out: % CP (cell proliferation) (CD4)
[5] = CD3/CD28 stimulation, CD8 T-cells, read-out: % CP (cell proliferation) (CD8)
[6] = CD3 alone stimulation, CD8 T-cells, read-out: % CP (cell proliferation) (CD8)
[7] = CD3/CD28 stimulation, read-out: GM-CSF secretion
[8] = CD3/CD28 stimulation, read-out: IFNγ secretion
[9] = CD3/CD28 stimulation, read-out: TNFα secretion
[10] = CD3 alone stimulation, read-out: GM-CSF secretion
[11] = CD3 alone stimulation, read-out: IFNγ secretion
[12] = CD3 alone stimulation, read-out: TNFα secretion
[13] = CD3/CD28 stimulation, CD4 T-cells, read-out: % CD69+ (CD4)
[14] = CD3/CD28 stimulation, CD8 T-cells, read-out: % CD69+ (CD8)
[15] = CD3 alone stimulation, CD4 T-cells, read-out: % CD69+ (CD4)
[16] = CD3 alone stimulation, CD8 T-cells, read-out: % CD69+ (CD8)

| Compound | fold induction at 1.11 µM [1, 4] | fold induction at 10 µM [1, 4] | fold induction at 1.11 µM [1, 5] | fold induction at 10 µM [1, 5] | fold induction at 1.11 µM [1, 6] | fold induction at 10 µM [1, 6] | fold induction at 1.11 µM [2, 7] | fold induction at 1.11 µM [2, 8] | fold induction at 1.11 µM [2, 9] | fold induction at 10 µM [2, 7] | fold induction at 10 µM [2, 8] | fold induction at 10 µM [2, 9] | fold induction at 1.11 µM [2, 10] | fold induction at 1.11 µM [2, 11] | fold induction at 1.11 µM [2, 12] | fold induction at 10 µM [2, 10] | fold induction at 10 µM [2, 11] | fold induction at 10 µM [2, 12] | fold induction at 1.11 µM [3, 13] | fold induction at 10 µM [3, 13] | other results |
| --- | --- | --- | --- | --- | --- | --- | --- | --- | --- | --- | --- | --- | --- | --- | --- | --- | --- | --- | --- | --- | --- |
| C[C@H](c1cc2c(c(C(F)(F)F)c1)CN(c1cccc(C3(Cc4nncn4C)COC3)c1)C2=O)N1CC[C@H](F)C1 [Compound 413, 6-((R)-1-((S)-3-fluoropyrrolidin-1-yl)ethyl)-2-(3-(3-((4-methyl-4H-1,2,4-triazol-3-yl)methyl)oxetan-3-yl)phenyl)-4-(trifluoromethyl)isoindolin-1-one] | > 4 | > 4 | 3.01 to 4 | > 4 | 3.01 to 4 | > 4 | 2.01 to 4 | < 2 | 2.01 to 4 | > 4 | 3.01 to 4 | 2.01 to 4 | 1.51 to 2 | 2.01 to 3 | 1.51 to 2 | 2.01 to 4 | > 4 | 1.51 to 2 | 1.4 to 1.6 | > 1.6 | fold induction at 1.11 µM [3, 14]: 1.2 to 1.4; fold induction at 10 µM [3, 14]: 1.2 to 1.4; fold induction at 1.11 µM [3, 15]: 1.4 to 1.6; fold induction at 10 µM [3, 15]: > 1.6; fold induction at 1.11 µM [3, 16]: 1.2 to 1.4; fold induction at 10 µM [3, 16]: 1.4 to 1.6 |
| Cn1cnnc1CC1(c2cccc(N3Cc4c(cc(CN5CC(F)C5)cc4C(F)(F)F)C3=O)c2)COC1 [Compound 415, 6-((3-fluoroazetidin-1-yl)methyl)-2-(3-(3-((4-methyl-4H-1,2,4-triazol-3-yl)methyl)oxetan-3-yl)phenyl)-4-(trifluoromethyl)isoindolin-1-one] | > 4 | > 4 | 3.01 to 4 | > 4 | > 4 | > 4 | 2.01 to 4 | 3.01 to 4 | 2.01 to 4 | > 4 | > 4 | 2.01 to 4 | 2.01 to 4 | 2.01 to 3 | 1.51 to 2 | > 4 | > 4 | 1.51 to 2 | 1.2 to 1.4 | 1.4 to 1.6 | fold induction at 1.11 µM [3, 14]: 1.2 to 1.4; fold induction at 10 µM [3, 14]: 1.2 to 1.4; fold induction at 1.11 µM [3, 15]: > 1.6; fold induction at 10 µM [3, 15]: > 1.6; fold induction at 1.11 µM [3, 16]: 1.2 to 1.4; fold induction at 10 µM [3, 16]: 1.4 to 1.6 |
| Cn1cnnc1CC1(c2cccc(N3Cc4c(cc(CN5CC[C@H](C#N)C5)cc4C(F)(F)F)C3=O)c2)COC1 [Compound 422, (S)-1-((2-(3-(3-((4-methyl-4H-1,2,4-triazol-3-yl)methyl)oxetan-3-yl)phenyl)-3-oxo-7-(trifluoromethyl)isoindolin-5-yl)methyl)pyrrolidine-3-carbonitrile] | > 4 | > 4 | 2.01 to 3 | 3.01 to 4 | 3.01 to 4 | > 4 | 2.01 to 4 | 3.01 to 4 | 2.01 to 4 | > 4 | > 4 | 2.01 to 4 | 2.01 to 4 | < 2 | ≤ 1.5 | 2.01 to 4 | 3.01 to 4 | 1.51 to 2 | 1.2 to 1.4 | 1.4 to 1.6 | fold induction at 1.11 µM [3, 14]: 1.2 to 1.4; fold induction at 10 µM [3, 14]: 1.2 to 1.4; fold induction at 1.11 µM [3, 15]: > 1.6; fold induction at 10 µM [3, 15]: > 1.6; fold induction at 1.11 µM [3, 16]: 1.2 to 1.4; fold induction at 10 µM [3, 16]: 1.4 to 1.6 |
| Cn1cnnc1C(F)(F)[C@](C)(F)c1cccc(N2Cc3c(cc(C(=O)N4CC[C@H](O)C4)cc3C(F)(F)F)C2=O)c1 [Compound 438, 6-((S)-3-hydroxypyrrolidine-1-carbonyl)-2-(3-((R)-1,1,2-trifluoro-1-(4-methyl-4H-1,2,4-triazol-3-yl)propan-2-yl)phenyl)-4-(trifluoromethyl)isoindolin-1-one] | 3.01 to 4 | > 4 | < 2 | 3.01 to 4 | < 2 | > 4 | 1.51 to 2 | < 2 | ≤ 1.5 | 2.01 to 4 | 2.01 to 3 | 2.01 to 4 | ≤ 1.5 | < 2 | 2.01 to 4 | 2.01 to 4 | 2.01 to 3 | 1.51 to 2 | 1.2 to 1.4 | 1.4 to 1.6 | fold induction at 1.11 µM [3, 14]: ≤ 1.2; fold induction at 10 µM [3, 14]: 1.2 to 1.4; fold induction at 1.11 µM [3, 15]: 1.2 to 1.4; fold induction at 10 µM [3, 15]: > 1.6; fold induction at 1.11 µM [3, 16]: ≤ 1.2; fold induction at 10 µM [3, 16]: 1.2 to 1.4 |
| Cn1cnnc1C(F)(F)[C@](C)(F)c1cccc(N2Cc3c(cc(CN4CC[C@@H](F)C4)cc3C(F)(F)F)C2=O)c1 [Compound 450] | > 4 | > 4 | 2.01 to 3 | > 4 | > 4 | > 4 | 2.01 to 4 | 2.01 to 3 | 2.01 to 4 | > 4 | > 4 | 2.01 to 4 | 1.51 to 2 | < 2 | 1.51 to 2 | 2.01 to 4 | < 2 | 1.51 to 2 | 1.2 to 1.4 | 1.4 to 1.6 | fold induction at 1.11 µM [3, 14]: 1.2 to 1.4; fold induction at 10 µM [3, 14]: 1.2 to 1.4; fold induction at 1.11 µM [3, 15]: 1.4 to 1.6; fold induction at 10 µM [3, 15]: > 1.6; fold induction at 1.11 µM [3, 16]: 1.2 to 1.4; fold induction at 10 µM [3, 16]: 1.4 to 1.6 |
| COC1CN(Cc2cc3c(c(C(F)(F)F)c2)CN(c2cccc([C@@](C)(F)C(F)(F)c4nncn4C)c2)C3=O)C1 [Compound 452, (R)-6-((3-methoxyazetidin-1-yl)methyl)-2-(3-(1,1,2-trifluoro-1-(4-methyl-4H-1,2,4-triazol-3-yl)propan-2-yl)phenyl)-4-(trifluoromethyl)isoindolin-1-one] | > 4 | > 4 | 3.01 to 4 | > 4 | 3.01 to 4 | > 4 | 2.01 to 4 | < 2 | 1.51 to 2 | 2.01 to 4 | 2.01 to 3 | 2.01 to 4 | 1.51 to 2 | 3.01 to 4 | ≤ 1.5 | 2.01 to 4 | 3.01 to 4 | 1.51 to 2 | 1.2 to 1.4 | 1.4 to 1.6 | fold induction at 1.11 µM [3, 14]: 1.2 to 1.4; fold induction at 10 µM [3, 14]: 1.2 to 1.4; fold induction at 1.11 µM [3, 15]: 1.4 to 1.6; fold induction at 10 µM [3, 15]: > 1.6; fold induction at 1.11 µM [3, 16]: 1.2 to 1.4; fold induction at 10 µM [3, 16]: 1.4 to 1.6 |
